Results: publication PMC5773572, “High-throughput analysis using non-depletive SPME: challenges and applications to the determination of free and total concentrations in small sample volumes” (Scientific Reports, 2018)

Experiments:
5% calf serum in PBS [1] = test: Protein binding by high-throughput SPME fiber method in 5% calf serum in PBS
Protocol: The SPME experimental workflow consisted of five major steps. First, prior to extraction, fibers were conditioned in 100 µL of desorption solution ACN/H2O (80/20, v/v), which was acidified to contain 0.1% (v/v) formic acid. The second step, occurring prior to extraction, involved submersing the fiber in 100 µL of ultrapure water to remove traces of solvent from the extraction phase. This step was performed for 10 seconds using 100 rpm agitation, with water temperature set to 37 °C in order to avoid a temperature gradient between the fiber and the sample, as this could influence the initial uptake of analytes. […] This step was critical, as it ensured that there were no traces of binding components remaining on the coating that could interfere with the quantitation of analytes extracted by the SPME fiber. […]
(§1) The reliability of the new fiber-based SPME high-throughput method was tested by applying it to the determination of the protein binding (PB) percentages of the selected analytes. […] The protein binding of each compound was calculated using the slope ratios of the linear portions of the calibration curves. […]
The developed SPME method was further evaluated using a matrix consisted of 5% CS in PBS to mimic conditions typically used in in vitro cell assay applications. […]

5% calf serum in PBS [2] = test: Protein binding by rapid equilibrium dialysis (RED) in 5% calf serum; assay type: in vitro ADME; conditions: 8K MWCO
Protocol: Equipments. […] Impact™ protein precipitation plates were purchased from Phenomenex (Torrance, CA, USA). Sample preparation for RED. […] RED protocol. […] Aliquots (400µL) of the spiked treatment medium solutions were added to the donor wells followed by the addition of600µL of blank medium to the acceptor cells. […] The experiment was performed in triplicate for all compounds and concentrations.

plasma proteins = conditions: value reported in the literature, used to calculate the expected free amount; cited from earlier work
calf serum (CS) = test: Protein binding by ultra-thin coated HLB fiber SPME, slope ratio of calibrations in PBS vs 100% calf serum; conditions: 100% calf serum vs PBS pH 7.4; fiber SPME, 5 min extraction, 37 °C, 100 µL sample
Protocol: (§2) The SPME experimental workflow consisted of five major steps. First, prior to extraction, fibers were conditioned in 100 µL of desorption solution ACN/H2O (80/20, v/v), which was acidified to contain 0.1% (v/v) formic acid. The second step, occurring prior to extraction, involved submersing the fiber in 100 µL of ultrapure water to remove traces of solvent from the extraction phase. This step was performed for 10 seconds using 100 rpm agitation, with water temperature set to 37 °C in order to avoid a temperature gradient between the fiber and the sample, as this could influence the initial uptake of analytes. Following, extraction was performed on 100 µL of sample for 5 min, with samples thermostated to 37 °C, using 100 rpm agitation, prior to extraction. The fourth step consisted of a second rinsing of the fiber with 100 µL of water for 10 seconds to remove matrix components from the fiber. This step was critical, as it ensured that there were no traces of binding components remaining on the coating that could interfere with the quantitation of analytes extracted by the SPME fiber. […]
as §1

[3] = as above; conditions: bovine (calf), 100% calf serum, pH 7.4
Protocol: as §2, §1

CN1CCCC1c1cccnc1 (racemic) [Nicotine, (±) nicotine]
PB values in 5% CS (SPME) (5% calf serum in PBS [1]): 8% | binding values in 5% CS (RED) (5% calf serum in PBS [2]): < 10% | Protein binding (plasma proteins): <10%

CCN(CC)C(=O)c1cccc(C)c1 [DEET, N,N-Diethyl-meta-toluamide]
PB values in 5% CS (SPME) (5% calf serum in PBS [1]): 38% | binding values in 5% CS (RED) (5% calf serum in PBS [2]): < 10% | protein binding (PB) (calf serum (CS)): 71%

O=C(O)Cc1ccccc1Nc1c(Cl)cccc1Cl [Diclofenac, diclofenac]
binding values in 5% CS (RED) (5% calf serum in PBS [2]): 91% | fraction unbound at 5 min [3]: 0.02
